The results in this text go back to patent US7812045B2, “Antifungal triazole derivatives” (Daewoong Pharmaceutical Co., Ltd., priority 2005, dated 2010).

Values after ≈ are worked out from the molar mass of the structure shown.

Data set [1] deals with Candida albicans (ATCC 36082). Description: In vivo assay for antifungal activity (survival of infected mice). Conditions: ICR mice infected i.v. with Candida albicans ATCC 36082; for % Survival on Day 21: 20 mg/kg orally once a day for seven days (day 0 to day 6), groups of 10. The protocol:
Candida albicans (ATCC 36082) was grown in YM broth on a rotary shaker (200 rpm, 26° C.) for about 12 hours to a concentration of 2.5×10^7 CFU/ml and used to infect ICR mice at a dose of 0.2 ml/head via caudal veins. Suspensions or solutions of the azole compounds in a 25% beta-hydroxypropyl methylcellulose base were orally administered at a dose of 20 mg/kg to respective infected ICR mice in groups of 10, the condition and body weights of the mice were monitored, and autopsies were finally conducted. For a negative control, the vehicle alone was used while fluconazole was administered to a positive control. The mice were inoculated once with the fungal preparation on the day of commencement of the administration. The test materials of interest and the positive control material were orally administered to the inoculated mice once a day for seven days from day 0 to day 6, with the first oral administration made five hours after the fungal inoculation (day 0). The periods of time for which the infected mice lived were counted.
The number of mice which survived the fungal infection for 21 days following the inoculation was represented as % survival for each test group, and the results are given in Table 11, below. All members of the negative control were dead 8 days after the fungal infection, while all of the groups administered with Compound 50 were dead 18 days after the fungal infection.

Another data set deals with HepG2 cells. Kind of data set: Assay for cytotoxicity in human hepatocytes (Neutral red). Particulars: overnight incubation, absorbance at 540 nm, triplicate, compound concentration not given.
A further data set is described as follows: Assay for acute toxicity. It counts as in vivo. Conditions: mice; oral administration, to a dose of 1000 mg/kg; observed for two weeks; suspension in 25% beta-hydroxypropyl methylcellulose base or polyethylene glycol 400.
The test system of data set [2] is Aspergillus niger ATCC 9142. Kind of data set: In vitro assay for antifungal activity (MIC90). Conditions: ATCC9142, RPMI 1640, growth read after 48 hours, duplicate, read-out: MIC90 (concentration at which 90% of the fungi were inhibited compared to the negative control). It counts as cell-based. Here is the method: (§1) Fungal strains to be tested were inoculated onto Sabouraud dextrose agar, YM agar, and potato dextrose agar and cultured at 35° C. for two to three days. Individual single colonies of the yeast fungi selected out of the cultured strains were suspended in 5 ml of 0.85% sterile saline, followed by correction to adjust the absorbance thereof at 530 nm to 0.108. The suspensions were diluted serially by 1:50 and then 1:20 in RPMI 1640 media to prepare liquid inocula ranging in cell count from 1.0×10^3 to 5.0×10^3 CFU/ml. As for filamentous fungi, their spores were suspended in 0.85% sterile saline and the suspensions were corrected with sterile saline to show optical transmittance at 530 nm of 80 to 82%. A dilution of 1:50 was made with RPMI 1640 media to prepare liquid inocula having cell counts from […] to 5×10^4 CFU/ml.
(§2) Antifungal samples were prepared by diluting the compounds of the present inventions in RPMI 1640 media to serial concentrations from 0.0625 to 32 μg/ml. As a vehicle, DMSO was contained in a final concentration of 1% (V/V) in the antifungal samples. 0.1 ml of each of the dilutions in series was added to equal volume of each of the fungal inocula.

In data set [3] the test system is Candida glabrata ATCC 34138. Description: In vitro assay for antifungal activity (MIC90). It counts as cell-based. Particulars: Nakaseomyces glabratus, ATCC34138, RPMI 1640, growth read after 24 hours, duplicate, read-out: MIC90 (concentration at which 90% of the fungi were inhibited compared to the negative control). Here is the method:
as §1, §2

Data set [4] relates to Aspergillus fumigatus ATCC MYA-1163. Description: In vitro assay for antifungal activity (MIC90). It counts as cell-based. Conditions: RPMI 1640, growth read after 48 hours, duplicate, read-out: MIC90 (concentration at which 90% of the fungi were inhibited compared to the negative control). Here is the method:
as §1, §2

A further data set deals with Candida krusei ATCC 6258. Kind of data set: In vitro assay for antifungal activity (MIC90). It is filed as cell-based. Particulars: Pichia kudriavzevii, ATCC6258, RPMI 1640, growth read after 24 hours, duplicate, read-out: MIC90 (concentration at which 90% of the fungi were inhibited compared to the negative control). Here is the method:
as §1, §2

The test system of data set [5] is Aspergillus terreus ATCC 28301. Description: In vitro assay for antifungal activity (MIC90). It counts as cell-based. Particulars: ATCC28301, RPMI 1640, growth read after 48 hours, duplicate, read-out: MIC90 (concentration at which 90% of the fungi were inhibited compared to the negative control). Here is the method:
as §1, §2

Data set [6] relates to Cryptococcus neoformans ATCC 4065. Description: In vitro assay for antifungal activity (MIC90). It is filed as cell-based. Particulars: ATCC4065, RPMI 1640, duplicate, read-out: MIC90 (concentration at which 90% of the fungi were inhibited compared to the negative control). Here is the method:
as §1, §2

The subject of data set [7] is Candida albicans ATCC 32033. Description: In vitro assay for antifungal activity (MIC90). It is filed as cell-based. Conditions: ATCC32033, RPMI 1640, growth read after 24 hours, duplicate, read-out: MIC90 (concentration at which 90% of the fungi were inhibited compared to the negative control). Here is the method: as §1, §2
Data set [8] deals with Aspergillus flavus ATCC MYA-1004. Description: In vitro assay for antifungal activity (MIC90). Conditions: RPMI 1640, growth read after 48 hours, duplicate, read-out: MIC90 (concentration at which 90% of the fungi were inhibited compared to the negative control). It counts as cell-based. The protocol: as §1, §2

Procedure for HepG2 cells: HepG2 cells were aliquoted at a population of 5×10^4 counts per well of 96-well plates and grown at 37° C. in a 5% CO2 incubator for 1 day. The culture medium in each well was replaced with a fresh medium containing the compounds of interest, followed by overnight incubation in the incubator. Following the addition of 100 μl of a 100 μg/ml Neutral red solution into each well, the cells were stained for 3 hours in the incubator and fixed in 1% formaldehyde with 1% CaCl2. The cells were destained in 1% glacial acetic acid plus 50% ethanol, followed by measurement for absorbance at 540 nm. Cytotoxicity was expressed as percentages of optical density relative to that of the control, treated with none of the compounds.

As for `C[C@@H](N1NCc2ccccc21)[C@](O)(Cn1cncn1)c1ccc(F)cc1F` [Example 50, (2R,3R)-2-(2,4-Difluorophenyl)-3-(2H-indazol-1-yl)-1-(1H-1,2,4-triazol-1-yl)butan-2-ol], in data set [1] (20 mg/kg orally once a day for seven days), the “time after the fungal infection at which all mice of the group were dead” value is given as 18 days. Further, the “% Survival on Day 21” value in data set [1] was determined as 0%. Also, the “Cytotoxicity (percentages of optical density relative to that of the control)” value in the data set with HepG2 cells was found to be 5.2%. Besides, in “Assay for acute toxicity”, the “acute toxicity: toxic syndromes observed” value was “no toxic syndromes”. The MIC90 in data set [2] was found to be 8 µg/mL (≈ 21.5 µM); in data set [3], 2 µg/mL (≈ 5.39 µM); in data set [4], 4 µg/mL (≈ 10.8 µM); with Candida krusei ATCC 6258, 0.5 µg/mL (≈ 1.35 µM); in data set [5], 4 µg/mL (≈ 10.8 µM); in [6] it was 0.063 µg/mL (≈ 0.17 µM). Moreover, the MIC90 is at most 0.015 µg/mL in data set [7] and 2 µg/mL (≈ 5.39 µM) in data set [8].

As to `C[C@@H](N1Cc2cc(NCc3ccc(Cl)cc3)ccc2N1)[C@](O)(Cn1cncn1)c1ccc(F)cc1F` [Example 245, (2R,3R)-3-(5-(4-chlorobenzylamino)-1H-indazol-2-yl)-2-(2,4-difluorophenyl)-1-(1H-1,2,4-triazol-1-yl)butan-2-ol], in [1], the “% Survival on Day 21” value came to 40%. Besides, in the data set with HepG2 cells, the “Cytotoxicity (percentages of optical density relative to that of the control)” value worked out at 9.9%. Moreover, the “acute toxicity: toxic syndromes observed” value in the data set “Assay for acute toxicity” is “no toxic syndromes”. Also, the MIC90 in [2] is 2 µg/mL (≈ 3.91 µM); in data set [3], 4 µg/mL (≈ 7.83 µM); in data set [4] it was 0.5 µg/mL (≈ 0.979 µM); in the data set on Candida krusei ATCC 6258, 0.5 µg/mL (≈ 0.979 µM); in [5], 0.5 µg/mL (≈ 0.979 µM); in data set [6] it was 0.125 µg/mL (≈ 0.245 µM). Besides, the MIC90 in [7] was at most 0.015 µg/mL; in data set [8] it was 0.5 µg/mL (≈ 0.979 µM).
